Source: patent US9131720B2, “High-potency sweetener composition with phytosterol and compositions sweetened therewith” (The Coca-Cola Company, priority 2005, dated 2015)

Columns and labels:
[1] = Sensory evaluation of sweetness linger by a panel of experts; assay type: in vivo; conditions: for Sweetness linger rating: 3-4 min after water rinse; for Sweetness Linger rating defined for control samples: scale anchors of the protocol, sucrose, 500 ppm REBA control sample
Procedure: In a particular embodiment, a panel of assessors is used to measure the reduction of sweetness linger. Briefly described, a panel of assessors (generally 8 to 12 individuals) is trained to evaluate sweetness perception and measure sweetness at several time points from when the sample is initially taken into the mouth until 3 minutes after it has been expectorated. […] A decrease in score for a time point measured after the sample has cleared the mouth indicates there has been a reduction in sweetness perception.
The panel of assessors may be trained using procedures well known to those of ordinary skill in the art. In a particular embodiment, the panel of assessors may be trained using the Spectrum™ Descriptive Analysis Method (Meilgaard et al, Sensory Evaluation Techniques, 3rd edition, Chapter 11). Desirably, the focus of training should be the recognition of and the measure of the basic tastes; specifically, sweet. In order to ensure accuracy and reproducibility of results, each assessor should repeat the measure of the reduction of sweetness linger about three to about five times per sample, taking at least a five minute break between each repetition and/or sample and rinsing well with water to clear the mouth.
Generally, the method of measuring sweetness comprises taking a 10 mL sample into the mouth, holding the sample in the mouth for 5 seconds and gently swirling the sample in the mouth, rating the sweetness intensity perceived at 5 seconds, expectorating the sample (without swallowing following expectorating the sample), rinsing with one mouthful of water (e.g., vigorously moving water in mouth as if with mouth wash) and expectorating the rinse water, rating the sweetness intensity perceived immediately upon expectorating the rinse water, waiting 45 seconds and, while waling those 45 seconds, identifying the time of maximum perceived sweetness intensity and rating the sweetness intensity at that time (moving the mouth normally and swallowing as needed), rating the sweetness intensity after another 10 seconds, rating the sweetness intensity after another 60 seconds (cumulative 120 seconds after rinse), and rating the sweetness intensity after still another 60 seconds (cumulative 180 seconds after rinse). Between samples take a 5 minute break, rinsing well with water to clear the mouth.
Sensory evaluation of the samples prepared in Example Set G was carried out under the following protocol, similar to that described hereinabove. In this test protocol, none of the samples were swallowed. All samples were expectorated and the mouth was rinsed with water after the tasting. Immediately upon sensing maximal sweetness, the sample was expectorated, the mouth was rinsed with water and the rate of sweetness decay (“Sweetness Linger”) was measured, where attention was focused on the sweetness 3-4 min after the water rinse. After sample tasting was complete, a salty oyster cracker was chewed followed by a water rinse, and at least 5 minutes followed before tasting the next sample. The sweetness linger was rated by a panel of experts in the sensory evaluation of foods and beverages using the following scale: 0=no sweetness linger, 1=very slight sweetness linger, 2=slight sweetness linger, 3 moderate sweetness linger, 4=moderately high sweetness linger, 5=high sweetness linger.
The “Sweetness Linger” rating for sucrose observed by this protocol is defined as 0. The Sweetness Linger of a 500 ppm of REBA control sample is defined as 5. […]

[2] = assay type: physicochemical
Procedure: A solution of rebaudioside A (>97% pure by HPLC) was prepared in double distilled water (12.5 gm in 50 mL, 25% concentration) by stirring the mixture at 40° C. for 5 minutes. An amorphous rebaudioside A polymorph was formed by immediately using the clear solution for spray drying with the Lab-Plant spray drier SD-04 instrument (Lab-Plant Ltd., West Yorkshire, U.K.). The solution was fed through the feed pump into the nozzle atomizer which atomized it into a spray of droplets with the help of a constant flow of nitrogen/air. […] This dry powder (11-12 g, H2O 6.74%) was discharged continuously from the drying chamber and was collected in a bottle.

[3] = Rate of dissolution in H2O at 25° C. of rebaudioside A polymorphs; assay type: physicochemical
[4] = 500 ppm REBA (H41: 360 ppm) in carbon-treated water with phosphoric acid (75%), pH 2.4-2.5, scale 0=no to 5=high sweetness linger

Row | Compound | Sweetness linger rating [1, 4] | Sweetness Linger rating defined for control samples [1] | Sweetness linger rating ([1]; 400 ppm REBA in citric acid/potassium citrate composition equivalent to diet lemon-lime beverage, scale 0=no, 1=very slight, 2=slight, 3=moderate, 4=moderately high, 5=high sweetness linger) | Solubility in water at room temperature [2] | Rate of dissolution in H2O at 25° C. [3]
1 | OC[C@H]1O[C@@](CO)(O[C@H]2O[C@H](CO)[C@@H](O)[C@H](O)[C@H]2O)[C@@H](O)[C@@H]1O [sugar, sucrose] | 0 | 0 |  |  | 
2 | rebaudioside A | 5 | 5 | 5 |  | 
3 | rebaudioside A [Form 4] |  |  |  | > 35.0% | (>35.0%/ %/5 minutes
